Data reported in patent US9938261B2, “Heterocyclic compounds and methods of use thereof” (AMBIT BIOSCIENCES CORPORATION, priority 2011, dated 2018).

molecular target: CSF1R (Homo sapiens, UniProt P07333); experiment: HEK293 CSF1R phosphorylation MSD assay; format: cell-based; design: expressed in transfected cells; host or cells: HEK293; conditions: HEK293 cells, M-CSF stimulated CSF1R phosphorylation, MSD; read-out: HEK293 pCSF1R M-CSF MSD:IC50
Outline: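 HEK293 cells expressing CSF1R-FKBP were pretreated 2 h at 37° C with 9 half-log concentrations of compound (0.5% DMSO final), then stimulated 5 min with 50 ng/mL human M-CSF. Lysates captured on biotin-FK506 plates; phosphotyrosine detected by MSD electrochemiluminescence. IC50 versus DMSO, averaged from duplicate plates.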

Chain of CSF1R (P07333 20-972): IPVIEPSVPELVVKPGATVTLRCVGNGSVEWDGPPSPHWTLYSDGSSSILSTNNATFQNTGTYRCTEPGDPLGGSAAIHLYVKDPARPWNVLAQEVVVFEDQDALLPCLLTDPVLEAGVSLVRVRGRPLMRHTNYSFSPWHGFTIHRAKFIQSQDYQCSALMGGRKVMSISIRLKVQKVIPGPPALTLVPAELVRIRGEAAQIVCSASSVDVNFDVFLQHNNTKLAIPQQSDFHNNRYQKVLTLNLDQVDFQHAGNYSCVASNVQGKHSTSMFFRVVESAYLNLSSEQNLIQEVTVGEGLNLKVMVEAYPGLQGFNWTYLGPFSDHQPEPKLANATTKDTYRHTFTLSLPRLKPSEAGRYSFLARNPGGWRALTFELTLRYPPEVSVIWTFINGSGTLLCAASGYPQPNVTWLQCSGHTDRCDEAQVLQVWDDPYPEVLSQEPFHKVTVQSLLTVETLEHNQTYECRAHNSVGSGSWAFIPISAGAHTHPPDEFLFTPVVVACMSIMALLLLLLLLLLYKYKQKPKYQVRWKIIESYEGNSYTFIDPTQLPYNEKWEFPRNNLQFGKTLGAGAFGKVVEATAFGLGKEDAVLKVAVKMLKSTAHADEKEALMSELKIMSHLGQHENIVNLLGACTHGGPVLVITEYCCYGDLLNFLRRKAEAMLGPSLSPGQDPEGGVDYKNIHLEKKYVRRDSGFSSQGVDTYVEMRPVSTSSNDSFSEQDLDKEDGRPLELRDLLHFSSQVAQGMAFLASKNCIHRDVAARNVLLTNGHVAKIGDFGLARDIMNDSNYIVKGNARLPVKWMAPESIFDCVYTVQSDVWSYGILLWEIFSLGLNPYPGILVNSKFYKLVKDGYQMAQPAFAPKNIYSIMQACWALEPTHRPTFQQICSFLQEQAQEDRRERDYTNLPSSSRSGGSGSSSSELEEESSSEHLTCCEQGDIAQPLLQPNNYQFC

Row | IC50 | Compound
1 | 50 to 200 nM | O[C@@H]1CCCC[C@H]1Nc1nc2ccc(Cc3cnc4cc(N5CCOCC5)ccn34)cc2s1 [Example 187, (1R,2R)-2-((6-((7-morpholinoimidazo[1,2-a]pyridin-3-yl)methyl)benzo[d]thiazol-2-yl)amino)cyclohexanol]
2 | 50 to 200 nM | Cn1cc(-c2ccc3c(c2)ncn3Cc2ccc3nc(N[C@@H]4CCCC[C@H]4O)sc3c2)c(C(F)(F)F)n1 [Example 185, (1R,2R)-2-((6-((5-(1-methyl-3-(trifluoromethyl)-1H-pyrazol-4-yl)-1H-benzo[d]imidazol-1-yl)methyl)benzo[d]thiazol-2-yl)amino)cyclohexanol]
3 | > 500 nM | Cc1cc(Br)cc2ncn(Cc3ccc4nc(N[C@@H]5CCCC[C@H]5O)sc4c3)c12 [Example 190, (1R,2R)-2-((6-((5-bromo-7-methyl-1H-benzo[d]imidazol-1-yl)methyl)benzo[d]thiazol-2-yl)amino)cyclohexanol]
4 | 200 to 500 nM | OC[C@@H]1CCC[C@@H](Nc2nc3ccc(Cn4cnc5cc(F)cnc54)cc3s2)C1 [Example 192, ((1R,3R)-3-((6-((6-fluoro-3H-imidazo[4,5-b]pyridin-3-yl)methyl)benzo[d]thiazol-2-yl)amino)cyclohexyl)methanol]
5 | ≤ 50 nM | CC(C)(O)C#Cc1cnc2c(c1)ncn2Cc1ccc2nc(N[C@@H]3CCCC[C@H]3O)sc2c1 [Example 104, (1R,2R)-2-((6-((6-(3-hydroxy-3-methylbut-1-yn-1-yl)-3H-imidazo[4,5-b]pyridin-3-yl)methyl)benzo[d]thiazol-2-yl)amino)cyclohexanol]
6 | ≤ 50 nM | O[C@@H]1[C@H](O)CCC[C@H]1Nc1nc2ccc(Cn3cnc4cc(F)cnc43)cc2s1 [Example 193, (1R,2S,3R)-3-((6-((6-fluoro-3H-imidazo[4,5-b]pyridin-3-yl)methyl)benzo[d]thiazol-2-yl)amino)cyclohexane-1,2-diol]
7 | 50 to 200 nM | OC[C@H]1CCC[C@@H](Nc2nc3ccc(Cn4cnc5cc(F)cnc54)cc3s2)C1 [Example 194, ((1S,3R)-3-((6-((6-fluoro-3H-imidazo[4,5-b]pyridin-3-yl)methyl)benzo[d]thiazol-2-yl)amino)cyclohexyl)methanol]
8 | 200 to 500 nM | OC[C@H]1CC[C@H](Nc2nc3ccc(Cn4cnc5cc(F)cnc54)cc3s2)CC1 [Example 179, (trans-4-((6-((6-fluoro-3H-imidazo[4,5-b]pyridin-3-yl)methyl)benzo[d]thiazol-2-yl)amino)cyclohexyl)methanol]
9 | 200 to 500 nM | N#Cc1cc2ncn(Cc3ccc4nc(N[C@@H]5CCCC[C@H]5O)oc4c3)c2cc1Cl [Example 195, 6-chloro-1-((2-(((1R,2R)-2-hydroxycyclohexyl)amino)benzo[d]oxazol-6-yl)methyl)-1H-benzo[d]imidazole-5-carbonitrile]
10 | ≤ 50 nM | C=Cc1ccc2c(c1)ncn2Cc1ccc2nc(N[C@@H]3CCCC[C@H]3O)sc2c1 [Example 183, (1R,2R)-2-((6-((5-vinyl-1H-benzo[d]imidazol-1-yl)methyl)benzo[d]thiazol-2-yl)amino)cyclohexanol]
11 | 50 to 200 nM | CN1CCN(c2ccn3c(Cc4ccc5nc(N[C@@H]6CCCC[C@H]6O)sc5c4)cnc3c2)CC1 [Example 188, (1R,2R)-2-((6-((7-(4-methylpiperazin-1-yl)imidazo[1,2-a]pyridin-3-yl)methyl)benzo[d]thiazol-2-yl)amino)cyclohexanol]
12 | 200 to 500 nM | CS[C@@H]1CCCC[C@H]1Nc1nc2ccc(Cn3cnc4cc(F)cnc43)cc2s1 [Example 181, 6-((6-fluoro-3H-imidazo[4,5-b]pyridin-3-yl)methyl)-N-((1R,2R)-2-(methylthio)cyclohexyl)benzo[d]thiazol-2-amine]
13 | > 500 nM | OC[C@H]1CC[C@@H](Nc2nc3ccc(Cn4cnc5cc(F)cnc54)cc3s2)CC1 [Example 180, (cis-4-((6-((6-fluoro-3H-imidazo[4,5-b]pyridin-3-yl)methyl)benzo[d]thiazol-2-yl)amino)cyclohexyl)methanol]
14 | 200 to 500 nM | Cc1cc(C)c2c(c1)ncn2Cc1ccc2nc(N[C@@H]3CCCC[C@H]3O)sc2c1 [Example 189]
15 | ≤ 50 nM | O[C@@H]1CCCC[C@H]1Nc1nc2ccc(Cc3cnc4ccc(Br)nn34)cc2s1 [Example 177, (1R,2R)-2-((6-((6-bromoimidazo[1,2-b]pyridazin-3-yl)methyl)benzo[d]thiazol-2-yl)amino)cyclohexanol]
16 | 200 to 500 nM | O[C@@H]1CCCC[C@H]1Nc1nc2ccc(Cn3cnc4cnc(C(F)(F)F)nc43)cc2s1 [Example 105, (1R,2R)-2-((6-((2-(trifluoromethyl)-9H-purin-9-yl)methyl)benzo[d]thiazol-2-yl)amino)cyclohexanol]
17 | > 500 nM | Fc1cnc2c(c1)ncn2Cc1ccc2nc(Nc3ccccc3)sc2c1 [Example 191, 6-((6-fluoro-3H-imidazo[4,5-b]pyridin-3-yl)methyl)-N-phenylbenzo[d]thiazol-2-amine]
18 | 200 to 500 nM | O[C@@H]1CCCC[C@H]1Nc1nc2ccc(Cn3cnc4cc(C5=CCCCC5)ccc43)cc2s1 [Example 184, (1R,2R)-2-((6-((5-(cyclohex-1-en-1-yl)-1H-benzo[d]imidazol-1-yl)methyl)benzo[d]thiazol-2-yl)amino)cyclohexanol]
19 | 200 to 500 nM | CN1CCN(c2ccc3ncc(Cc4ccc5nc(N[C@@H]6CCCC[C@H]6O)sc5c4)n3n2)CC1 [Example 178, (1R,2R)-2-((6-((6-(4-methylpiperazin-1-yl)imidazo[1,2-b]pyridazin-3-yl)methyl)benzo[d]thiazol-2-yl)amino)cyclohexanol]
20 | ≤ 50 nM | O[C@@H]1CCCC[C@H]1Nc1nc2ccc(Cn3cnc4cc(OC5COC5)ccc43)cc2s1 [Example 182, (1R,2R)-2-((6-((5-(oxetan-3-yloxy)-1H-benzo[d]imidazol-1-yl)methyl)benzo[d]thiazol-2-yl)amino)cyclohexanol]
21 | 200 to 500 nM | O[C@@H]1CCCC[C@H]1Nc1nc2ccc(Cc3cnc4cccc(F)n34)cc2s1 [Example 186, (1R,2R)-2-((6-((5-fluoroimidazo[1,2-a]pyridin-3-yl)methyl)benzo[d]thiazol-2-yl)amino)cyclohexanol]
